# Data: patent EP0715517B1, “ESTRENE STEROIDS AS NEU[…] CHANGE IN HUMAN HY[…] AND RELATED PHARMACEUTICAL COMPOSITIONS” (priority 1993, dated 1994)
# Entries after “also recorded” stand apart in the source; their conditions may differ.
# Columns and labels:
# [1] = test system: VNO; assay: Cortical evoked activity (EEG, alpha cortical activity) after VNO stimulation (Example 25); type: in vivo, human
# Procedure: (§1) Cortical evoked activity was induced by VNO stimulation with vomeropherins, and olfactory stimulation with odorants delivered in 300 ms air pulses. It was recorded using standard electroencephalographic (EEG) electrodes placed at positions Cz-A1 and Tz-A1 of the international […] system; the ground electrode was placed on the mastoid process. Electrodermal activity (EDA) was recorded using standard 8 mm silver electrodes in contact with palmar skin of the medial and ring fingers respectively, through a conductive gel interface. Skin temperature (ST) was recorded by a small (1.0 mm) thermistor probe placed in the right ear lobe. Peripheral arterial pulse (PAP) was monitored with a plethysmograph attached to the tip of the index finger. Respiratory frequency (RF) was measured with an adjustable strain gauge placed around the lower thorax. All electrical signals were DC amplified, digitized (MP-100, Biopac Systems) and continuously monitored utilizing a computer. Statistical Analysis: EVGs or EOGS, peak-to-peak changes and frequency changes of other parameters were measured and statistically analyzed. The significance of the results was determined by either using paired t-tests or analysis of variance (ANOVA). […] Recordings of the EVG were performed on 30 men and 30 women (ages 20 to 45). Vomeropherins were diluted and applied as 1 second pulses to the VNO with […] intervals between pulses when questioned, the subjects were not able to "smell" or otherwise consciously detect any of the vomeropherins.
# […] […] Synchronization of the EEG was sustained for 1.5 to 2.7 minutes after application of a single pulse of active substance.
# [2] = test system: VNO; assay: Autonomic responses to Estrene stimulation of the VNO (Example 22); type: in vivo, human; conditions: 40 male subjects, 1 second pulse
# Procedure: Various autonomic parameters were monitored while 1,3,5(10), 16-Estratetraen-3-yl-acetate was administered to 40 male subjects using the procedure described in Example 20. Propylene glycol was also administered as a control. The ligand was administered as a 1 second pulse. The change in autonomic function was first noted within 2 seconds and lasted for up to 45 seconds.
# [3] = test system: VNO; assay: Electro-vomeronasogram (EVG) (Example 25); type: in vivo, human; conditions: for EVG response in female subjects (in words): 30 female subjects (ages 20 - 45), Fig. 6B; for EVG response in female subjects (in words) / EVG average response (mean) / EVG response in the male VNO (in words): 100 fmoles; for EVG average response (mean): male subjects (ages 20 to 38), 1 second pulses, p<0.01, Fig. 6A; for EVG response in the male VNO (in words): male subjects, Fig. 6A and Fig. 7; for EVG response to olfactants delivered to the VNO: male and female subjects, 400 fmoles, Fig. 7B
# Procedure: The following electrophysiological studies were performed in 60 clinically normal human volunteers of both sexes (30 male and 30 female) whose ages ranged from 20 to 45 years. No anesthetics were used, and female subjects were excluded if pregnant.
# (§2) The stimulation and recording system consists of a "multifunctional miniprobe" described elsewhere (Monti-Bloch, L. and Grosser, B.l. (1991) "Effect of putative pheromones on the electrical activity of the human vomeronasal organ and olfactory epithelium," J. Steroid Biochem. Molec. Biol. 39:573-582.). The recording electrode is a 0.3 mm silver ball attached to a small (0.1 mm) silver wire insulated with Teflon© the surface of the electrode is first treated to produce a silver chloride interface, and is then covered with gelatin It is positioned within a small caliber Teflon© catheter (dia = […]) such that the tip of the electrode protrudes approximately 2 mm. The Teflon© catheter is 10 cm in length and constitutes the terminal extension for a multichannel delivery system which delivers a continuous air stream carrying discreet pulses of chemosensory stimuli. The air stream first passes into a small chamber and is bubbled through a solution containing either a vomeropherin or an olfactant in a diluent or the diluent alone. A solenoid is used to rapidly redirect the air stream from the chamber to a route which bypasses the chamber. This creates a discreet pulse of stimulant in the air stream. A second, outer Teflon® tube with a diameter of 2 mm surrounds the catheter-electrode assemblage, and its central end is connected to an aspirator that provides continuous suction of 3ml/s. This concentric arrangement of the outer suction tube allows the emitted chemosensory stimuli to be localized to an area we call a "minifield" (approx. dia = 1 mm), and it avoids diffusion of substances either to the area outside the intended stimulation site or into the respiratory system. The entire stimulating and recording assemblage may be positioned either on the neurosensory epithelium within the VNO, or on the surface of the olfactory or respiratory epithelium. Electro-vomeronasogram (EVG): Recordings are carried out in a quiet room with the subject supine; the multifunctional miniprobe is initially stabilized within the nasal cavity using a nasal retractor placed in the vestibule. Reference and ground electrodes consist of silver discs (8 mm), both of which are positioned on the glabella.
# The entrance to the VNO, or vomeronasal pit, is identified by first dilating the nasal aperture and vestibule. A 6x magnifying binocular loupe with halogen illumination is then used to introduce the tip of the Teflon® catheter and recording electrode assemblage into the VNO opening where it is stabilized at an approximate depth of 1 mm within the vomeronasal passage. Optimal placement of the recording electrode is signaled after testing for an adequate depolarization in response to a test substance.
# Electrical signals from the recording electrode are fed to a DC amplifier after which they are digitized, computer monitored, and stored. The peak-to-peak amplitude of the signals is measured, and the area under the depolarization wave is integrated, while continuously monitoring the signal both on the computer screen and on a digital oscilloscope. Artifacts produced by respiratory movements are deleted by training the subjects to practice mouth breathing with velopharyngeal closure. Chemosensory Stimulants: Olfactory test substances are cineole, and 1-carvone; vomeropherins are A, B, C, E and F. (Vomeropherins were supplied by Pherin Corporation, Menlo Park, California), Samples of vomeropherins In concentration of 25-800 fmoles are delivered in the continuous air stream for durations from 300 milliseconds to 1 second. Usually, intervals of 3 to 5 minutes separated each series of short test pulses. […]
# [4] = test system: VNO; assay: Electrodermal activity (EDA) after VNO stimulation (Example 25); type: in vivo, human; conditions: p<0.01, n = 30; for skin resistance (electrodermal activity, EDA): male subjects, Fig. 6C; for decrease in EDA: female subjects
# Procedure: as §1
# [5] = test system: VNO; assay: Skin temperature (ST) after VNO stimulation (Example 25); type: in vivo, human
# Procedure: as §1
# [6] = test system: olfactory epithelium (OE); assay: Electro-olfactgram (EOG) (Example 25); type: in vivo, human; conditions: 20 subjects (10 males, 10 females); 200 fmoles vomeropherins, 400 fmoles olfactants; one second pulses; Fig. 7A
# Source text: as §2
# Electrical signals from the recording electrode are fed to a DC amplifier after which they are digitized, computer monitored, and stored. The peak-to-peak amplitude of the signals is measured, and the area under the depolarization wave is integrated, while continuously monitoring the signal both on the computer screen and on a digital oscilloscope. […]
# Effects of Vomeropherins on the EOG: The summated receptor potential from the olfactory epithelium (OE) was recorded in 20 subjects: 10 males and 10 females. […]
# [7] = test system: human vomeronasal organ (VNO); assay: Local electrical potentials recorded from the VNO after localized gaseous stimulation (Example 20); type: in vivo; conditions: for VNO response, males compared with females (sexually dimorphic): Fig. 2B; for VNO response: males, about 25 pg of steroid-ligand puffed 1 to 2 seconds, response measured in mV x s, Fig. 2A
# Procedure: A non-invasive method has been employed to record local electrical potentials from the human vomeronasal organ (VNO) and from the olfactory epithelium (OE). Localized gaseous stimulation was applied to both nasal structures at different instances using specially designed catheter/electrodes connected to a multichannel drug delivery system.
# The study was performed on ten clinically normal (screened) volunteers - 2 males and 8 females, ranging in age from 18 to 85 years. The studies were conducted without general or local anesthetics.
# The catheter/electrodes were designed to deliver a localized stimulus and simultaneously record the response. In the case of VNO recording, the right nasal fosa of the subject was explored using a nasoscope (nasal specula) and the vomeronasal opening was localized close to the intersection of the anterior edge of the vomer and the nasal floor. The catheter/electrode was gently driven through the VNO-opening and the electrode tip placed in the organ's lumen at 1 to 3 mm from the opening. The nasoscope was then removed. In the case of the OE, recording the procedure was similar except the positioning of the catheter/electrode was gently placed deep in the lateral part of the medial nasal duct, reaching the olfactory mucosa.
# Localized gaseous stimulation was done through the catheter/electrode. A constant stream of clean, nonodorous, humidified air at room temperature was continuously passed through a channel of the stimulating system. The stimulating ligand substances were diluted in propylene glycol, mixed with the humidified air, and puffed for from 1 to 2 seconds through the catheter/electrode. It is estimated that this administration provides about 25 pg of steroid-ligand to the nasal cavity.
# [8] = males, 200 fmoles, air pulses 300 ms to 1 sec, Fig. 6E
# [9] = 30 male subjects, p<0.01, Fig. 6G
# [10] = females, single pulse (200 fmoles), Fig. 6F
# [11] = 30 female subjects, p<0.01, compared to A and C, Fig. 6H
smiles,measurement,setting,value
"CC(=O)Oc1ccc2c(c1)CC[C@@H]1[C@@H]2CC[C@]2(C)C=CC[C@@H]12 [A, 1,3, 5(10),16-Estratetraen-3-yl acetate]",alpha cortical activity,[1]; [8],significantly increased alpha cortical activity; also recorded: strongest effect
same,latency of increase in alpha cortical activity,"[1]; males, 200 fmoles, Fig. 6E",270 to 380 ms
same,change in autonomic function first noted (onset),[2],≤ 2 s
same,change in autonomic function lasted (duration),[2],up to 45 seconds
same,integrated receptor potential in the VNO,"[2]; compared to propylene glycol control, Fig. 4A",significant change
same,galvanic skin response,"[2]; compared to propylene glycol control, Fig. 4B",significant change
same,EVG response in female subjects (in words),[3],small effect that was significantly different from F
same,EVG average response (mean),[3],11.4 mV
same,"skin resistance (electrodermal activity, EDA)",[4],decreased skin resistance
same,skin temperature (ST),[5]; [9],significant increase in skin temperature
"C[C@@]12C=CC[C@H]1[C@@H]1CCC3=C[C@@H](O)CC[C@]3(C)[C@H]1CC2 [F, Androsta-4,16-dien-3β-ol]",alpha cortical activity,[1]; [10],increased alpha cortical
same,EVG response in female subjects (in words),[3],produced the most significant differences within the group
same,EVG response in the male VNO (in words),[3],significantly reduced responses in the male VNO
same,decrease in EDA,[4],greater decrease in EDA than A or C
same,skin temperature (ST),[5]; [11],significant increase in skin temperature
"C[C@@]12C=CC[C@H]1[C@@H]1CCC3=CC(=O)CC[C@]3(C)[C@H]1CC2 [B, Androsta-4,16-dien-3-one]",alpha cortical activity,[1]; [10],increased alpha cortical
same,EVG response in the male VNO (in words),[3],significantly reduced responses in the male VNO
same,decrease in EDA,[4],greater decrease in EDA than A or C
same,skin temperature (ST),[5]; [11],significant increase in skin temperature
same,EOG local response of the OE (in words),[6],the only vomeropherin having significant effect in the OE; also recorded: significant (p<0.01) local response
"C[C@@]12C=CC[C@H]1[C@@H]1CCc3cc(O)ccc3[C@H]1CC2 [C, 1,3,5(10),16-Estratetraen-3-ol]",alpha cortical activity,[1]; [8],significantly increased alpha cortical activity
same,latency of increase in alpha cortical activity,"[1]; males, 200 fmoles, Fig. 6E",270 to 380 ms
same,"VNO response, males compared with females (sexually dimorphic)",[7],approximately four times as strong in males as it is in females
same,VNO response,[7],significantly stronger VNO response in males than do the other compounds tested
same,EVG average response (mean),[3],6.4 mV
same,"skin resistance (electrodermal activity, EDA)",[4],decreased skin resistance
same,skin temperature (ST),[5]; [9],significant increase in skin temperature
"C[C@]12CC[C@@H]3c4ccc(O)cc4CC[C@H]3[C@@H]1C[C@@H](O)[C@@H]2O [1,3,5(10)-Estratrien-3, 16α,17δ-triol]","VNO response, males compared with females (sexually dimorphic)",[7],approximately four times as strong in males as it is in females
same,VNO response,[7],strong VNO response
"CC12CCC(CC1)C(C)(C)O2 [cineole, reference compound]",EVG response to olfactants delivered to the VNO,[3],only a minor local response in the VNO; also recorded: do not induce a significant EVG response
same,EOG local response of the OE (in words),[6],strong response in both men and women; also recorded: significant (p<0.01) local response
"C=C(C)[C@@H]1CC=C(C)C(=O)C1 [1-carvone, reference compound]",EVG response to olfactants delivered to the VNO,[3],only a minor local response in the VNO; also recorded: do not induce a significant EVG response
same,EOG local response of the OE (in words),[6],strong response in both men and women; also recorded: significant (p<0.01) local response
"C[C@@]12C=CC[C@H]1[C@@H]1CCC3=C[C@H](O)CC[C@]3(C)[C@H]1CC2 [E, Androsta-4,16-dien-3α-ol]",EVG response in female subjects (in words),[3],does not stimulate the VNO in female subjects
same,EOG local response of the OE (in words),[6],stronger olfactory effect than does F; also recorded: significant (p<0.01) local response
